Measurements: ChEMBL document CHEMBL4229543, “Squaramides as novel class I and IIB histone deacetylase inhibitors for topical treatment of cutaneous t-cell lymphoma” (Bioorg Med Chem Lett, 2018)
≈ marks a conversion by molar mass, not a printed value.

Legend:
[1] = Clearance in human hepatocytes assessed per million cells at 1 uM after 5 to 90 mins by LC-MS/MS analysis; type: ADME, cell-based, Hepatocyte; settings: read-out: CLH
[2] = Solubility in pH 7.4 phosphate buffer solution at 100 uM after 24 hrs by HPLC method; type: physicochemical; settings: phosphate buffer, pH 7.4
Histone deacetylase 1 [3] = molecular target: T1, Histone deacetylase 1 (Homo sapiens, UniProt Q13547); assay: Inhibition of human recombinant HDAC1 using Fluor de Lys as substrate after 2 hrs by fluorescence method
Histone deacetylase 1 [4] = molecular target: T1, Histone deacetylase 1; assay: Inhibition of human recombinant HDAC1 using fluorogenic HDAC substrate after 15 mins by fluorimetrc method
Histone deacetylase 2 = Histone deacetylase 2 (Homo sapiens, UniProt Q92769); assay: Inhibition of human recombinant HDAC2 using fluorogenic HDAC substrate after 15 mins by fluorimetrc method
Histone deacetylase 3 = Histone deacetylase 3 (Homo sapiens, UniProt O15379); assay: Inhibition of human recombinant HDAC3 using fluorogenic HDAC substrate after 10 mins by […] method
Histone deacetylase 8 = molecular target: T2, Histone deacetylase 8 (Homo sapiens, UniProt Q9BY41); assay: Inhibition of human recombinant HDAC8 using fluorogenic HDAC substrate after 15 mins by fluorimetrc method
T2 sequence (Q9BY41 whole entry): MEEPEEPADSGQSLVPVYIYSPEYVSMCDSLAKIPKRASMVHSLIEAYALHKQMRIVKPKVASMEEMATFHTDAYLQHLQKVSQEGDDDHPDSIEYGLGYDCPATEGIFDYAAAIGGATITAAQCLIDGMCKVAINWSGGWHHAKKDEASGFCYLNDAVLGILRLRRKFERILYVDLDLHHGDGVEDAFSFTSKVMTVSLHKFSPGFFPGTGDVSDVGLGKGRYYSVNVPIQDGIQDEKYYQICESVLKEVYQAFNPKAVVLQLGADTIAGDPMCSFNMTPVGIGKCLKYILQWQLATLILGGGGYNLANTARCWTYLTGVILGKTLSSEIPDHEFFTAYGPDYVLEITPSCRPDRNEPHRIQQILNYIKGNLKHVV

Histone deacetylase 4 = Histone deacetylase 4 (Homo sapiens, UniProt P56524); assay: Inhibition of human recombinant HDAC4 using fluorogenic HDAC substrate class 2a after 30 mins by fluorimetrc method
Histone deacetylase 5 = Histone deacetylase 5 (Homo sapiens, UniProt Q9UQL6); assay: Inhibition of human recombinant HDAC5 using fluorogenic HDAC substrate class 2a after 30 mins by fluorimetrc method
Histone deacetylase 7 = molecular target: T3, Histone deacetylase 7 (Homo sapiens, UniProt Q8WUI4); assay: Inhibition of human recombinant HDAC7 using fluorogenic HDAC substrate class 2a after 45 mins by fluorimetrc method
T3 sequence (Q8WUI4 whole entry): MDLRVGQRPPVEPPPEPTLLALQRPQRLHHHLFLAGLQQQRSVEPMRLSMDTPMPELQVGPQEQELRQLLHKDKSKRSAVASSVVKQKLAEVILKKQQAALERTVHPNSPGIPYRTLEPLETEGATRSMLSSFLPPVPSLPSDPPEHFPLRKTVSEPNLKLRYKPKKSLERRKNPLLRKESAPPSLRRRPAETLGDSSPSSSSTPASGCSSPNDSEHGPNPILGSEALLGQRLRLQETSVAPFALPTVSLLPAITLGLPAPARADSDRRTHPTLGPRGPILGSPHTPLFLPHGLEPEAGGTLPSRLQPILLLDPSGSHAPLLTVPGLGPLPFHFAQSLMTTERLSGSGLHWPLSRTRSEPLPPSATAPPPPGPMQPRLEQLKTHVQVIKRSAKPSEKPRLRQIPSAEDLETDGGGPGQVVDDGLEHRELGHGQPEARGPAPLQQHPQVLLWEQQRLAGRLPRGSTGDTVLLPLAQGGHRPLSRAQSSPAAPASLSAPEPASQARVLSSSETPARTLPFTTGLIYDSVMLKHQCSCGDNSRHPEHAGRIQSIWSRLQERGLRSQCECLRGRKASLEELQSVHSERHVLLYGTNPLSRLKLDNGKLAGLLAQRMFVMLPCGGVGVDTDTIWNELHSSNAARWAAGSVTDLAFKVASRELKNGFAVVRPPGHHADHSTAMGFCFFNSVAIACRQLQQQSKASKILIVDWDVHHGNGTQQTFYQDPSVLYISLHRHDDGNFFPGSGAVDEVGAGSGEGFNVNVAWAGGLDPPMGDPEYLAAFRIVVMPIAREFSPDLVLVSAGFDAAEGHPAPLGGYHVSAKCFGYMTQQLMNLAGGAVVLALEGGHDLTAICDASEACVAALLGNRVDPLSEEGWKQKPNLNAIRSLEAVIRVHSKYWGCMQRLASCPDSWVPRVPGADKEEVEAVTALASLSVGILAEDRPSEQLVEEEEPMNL

[5] = molecular target: T4, NAD-dependent protein deacetylase sirtuin-2 (Homo sapiens, UniProt Q8IXJ6); assay: Inhibition of human recombinant SIRT2 using fluoro-lysine sirtuin 2 deacetylase substrate after 60 mins by fluorimetrc method
T4 sequence (Q8IXJ6 whole entry): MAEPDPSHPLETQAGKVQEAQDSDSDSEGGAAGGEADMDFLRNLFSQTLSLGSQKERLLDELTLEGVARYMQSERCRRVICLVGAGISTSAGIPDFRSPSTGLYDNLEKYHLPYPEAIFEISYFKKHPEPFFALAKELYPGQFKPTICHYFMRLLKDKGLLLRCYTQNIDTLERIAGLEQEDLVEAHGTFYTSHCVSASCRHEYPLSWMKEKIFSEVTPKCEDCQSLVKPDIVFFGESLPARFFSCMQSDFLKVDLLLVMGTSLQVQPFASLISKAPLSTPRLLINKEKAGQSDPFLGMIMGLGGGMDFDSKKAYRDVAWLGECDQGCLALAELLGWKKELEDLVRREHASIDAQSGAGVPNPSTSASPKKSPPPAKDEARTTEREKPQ

Histone deacetylase 4, sequence (P56524 whole entry): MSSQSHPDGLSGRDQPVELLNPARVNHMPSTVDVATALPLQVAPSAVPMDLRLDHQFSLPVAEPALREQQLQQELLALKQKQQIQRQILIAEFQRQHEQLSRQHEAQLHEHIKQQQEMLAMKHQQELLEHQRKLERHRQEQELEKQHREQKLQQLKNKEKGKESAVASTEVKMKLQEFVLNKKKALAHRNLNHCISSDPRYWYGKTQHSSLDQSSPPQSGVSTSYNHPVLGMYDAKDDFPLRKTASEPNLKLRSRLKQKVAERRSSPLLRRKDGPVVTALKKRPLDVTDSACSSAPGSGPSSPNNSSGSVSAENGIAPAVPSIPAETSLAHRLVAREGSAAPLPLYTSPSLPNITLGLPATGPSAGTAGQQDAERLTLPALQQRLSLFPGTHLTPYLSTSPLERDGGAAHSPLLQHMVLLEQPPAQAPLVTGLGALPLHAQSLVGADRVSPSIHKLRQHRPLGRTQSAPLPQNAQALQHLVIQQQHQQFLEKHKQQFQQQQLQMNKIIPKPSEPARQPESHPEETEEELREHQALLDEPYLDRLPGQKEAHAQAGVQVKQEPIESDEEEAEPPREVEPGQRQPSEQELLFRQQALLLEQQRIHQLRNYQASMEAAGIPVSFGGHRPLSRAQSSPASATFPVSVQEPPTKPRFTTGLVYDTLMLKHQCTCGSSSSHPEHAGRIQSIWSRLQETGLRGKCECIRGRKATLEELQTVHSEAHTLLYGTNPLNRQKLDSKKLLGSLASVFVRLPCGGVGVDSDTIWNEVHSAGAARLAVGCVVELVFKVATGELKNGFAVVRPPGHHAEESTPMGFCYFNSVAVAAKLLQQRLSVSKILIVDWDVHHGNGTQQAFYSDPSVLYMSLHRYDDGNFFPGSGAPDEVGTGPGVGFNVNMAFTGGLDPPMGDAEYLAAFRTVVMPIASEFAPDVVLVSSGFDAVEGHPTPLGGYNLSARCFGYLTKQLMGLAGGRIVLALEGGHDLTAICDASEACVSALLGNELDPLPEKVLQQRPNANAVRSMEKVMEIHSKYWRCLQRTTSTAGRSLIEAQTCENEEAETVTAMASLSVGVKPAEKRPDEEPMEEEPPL
Histone deacetylase 3, sequence (O15379 whole entry): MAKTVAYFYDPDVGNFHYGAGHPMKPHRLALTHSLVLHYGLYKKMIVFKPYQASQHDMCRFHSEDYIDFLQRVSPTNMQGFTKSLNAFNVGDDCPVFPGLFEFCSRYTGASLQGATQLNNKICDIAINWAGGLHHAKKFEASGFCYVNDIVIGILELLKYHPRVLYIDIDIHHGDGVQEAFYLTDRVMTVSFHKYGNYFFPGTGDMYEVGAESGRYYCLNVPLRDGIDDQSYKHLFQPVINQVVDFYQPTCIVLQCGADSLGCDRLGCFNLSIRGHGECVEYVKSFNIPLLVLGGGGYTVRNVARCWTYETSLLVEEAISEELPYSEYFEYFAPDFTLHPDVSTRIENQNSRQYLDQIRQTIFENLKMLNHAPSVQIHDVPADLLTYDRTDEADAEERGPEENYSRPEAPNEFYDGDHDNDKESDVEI
T1 sequence (Q13547 whole entry): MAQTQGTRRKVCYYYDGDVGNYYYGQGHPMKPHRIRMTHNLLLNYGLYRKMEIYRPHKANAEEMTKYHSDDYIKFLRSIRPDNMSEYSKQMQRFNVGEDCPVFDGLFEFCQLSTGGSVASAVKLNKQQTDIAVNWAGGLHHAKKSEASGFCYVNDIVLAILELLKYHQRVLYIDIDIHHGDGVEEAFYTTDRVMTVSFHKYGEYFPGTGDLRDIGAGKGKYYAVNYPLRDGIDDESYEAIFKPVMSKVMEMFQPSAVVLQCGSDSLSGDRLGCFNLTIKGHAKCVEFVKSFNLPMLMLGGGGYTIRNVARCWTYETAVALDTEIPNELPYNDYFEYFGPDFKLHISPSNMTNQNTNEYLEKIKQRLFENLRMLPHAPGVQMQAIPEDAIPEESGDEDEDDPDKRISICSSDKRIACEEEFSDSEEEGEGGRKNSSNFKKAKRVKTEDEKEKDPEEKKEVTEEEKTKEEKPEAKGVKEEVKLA
Histone deacetylase 2, sequence (Q92769 whole entry): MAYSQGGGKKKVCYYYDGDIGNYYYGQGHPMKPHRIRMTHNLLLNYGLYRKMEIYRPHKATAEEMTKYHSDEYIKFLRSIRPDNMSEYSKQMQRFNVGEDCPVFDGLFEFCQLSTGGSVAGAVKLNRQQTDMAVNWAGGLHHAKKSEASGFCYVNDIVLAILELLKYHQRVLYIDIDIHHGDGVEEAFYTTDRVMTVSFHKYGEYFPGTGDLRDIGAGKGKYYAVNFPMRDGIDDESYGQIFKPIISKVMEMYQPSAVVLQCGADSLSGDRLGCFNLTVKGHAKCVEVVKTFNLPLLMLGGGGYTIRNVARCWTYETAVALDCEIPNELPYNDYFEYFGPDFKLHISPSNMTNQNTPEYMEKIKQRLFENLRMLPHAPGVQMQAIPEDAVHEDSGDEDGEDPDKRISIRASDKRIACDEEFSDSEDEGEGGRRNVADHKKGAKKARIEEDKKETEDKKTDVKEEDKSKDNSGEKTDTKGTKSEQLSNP
Histone deacetylase 5, sequence (Q9UQL6 whole entry): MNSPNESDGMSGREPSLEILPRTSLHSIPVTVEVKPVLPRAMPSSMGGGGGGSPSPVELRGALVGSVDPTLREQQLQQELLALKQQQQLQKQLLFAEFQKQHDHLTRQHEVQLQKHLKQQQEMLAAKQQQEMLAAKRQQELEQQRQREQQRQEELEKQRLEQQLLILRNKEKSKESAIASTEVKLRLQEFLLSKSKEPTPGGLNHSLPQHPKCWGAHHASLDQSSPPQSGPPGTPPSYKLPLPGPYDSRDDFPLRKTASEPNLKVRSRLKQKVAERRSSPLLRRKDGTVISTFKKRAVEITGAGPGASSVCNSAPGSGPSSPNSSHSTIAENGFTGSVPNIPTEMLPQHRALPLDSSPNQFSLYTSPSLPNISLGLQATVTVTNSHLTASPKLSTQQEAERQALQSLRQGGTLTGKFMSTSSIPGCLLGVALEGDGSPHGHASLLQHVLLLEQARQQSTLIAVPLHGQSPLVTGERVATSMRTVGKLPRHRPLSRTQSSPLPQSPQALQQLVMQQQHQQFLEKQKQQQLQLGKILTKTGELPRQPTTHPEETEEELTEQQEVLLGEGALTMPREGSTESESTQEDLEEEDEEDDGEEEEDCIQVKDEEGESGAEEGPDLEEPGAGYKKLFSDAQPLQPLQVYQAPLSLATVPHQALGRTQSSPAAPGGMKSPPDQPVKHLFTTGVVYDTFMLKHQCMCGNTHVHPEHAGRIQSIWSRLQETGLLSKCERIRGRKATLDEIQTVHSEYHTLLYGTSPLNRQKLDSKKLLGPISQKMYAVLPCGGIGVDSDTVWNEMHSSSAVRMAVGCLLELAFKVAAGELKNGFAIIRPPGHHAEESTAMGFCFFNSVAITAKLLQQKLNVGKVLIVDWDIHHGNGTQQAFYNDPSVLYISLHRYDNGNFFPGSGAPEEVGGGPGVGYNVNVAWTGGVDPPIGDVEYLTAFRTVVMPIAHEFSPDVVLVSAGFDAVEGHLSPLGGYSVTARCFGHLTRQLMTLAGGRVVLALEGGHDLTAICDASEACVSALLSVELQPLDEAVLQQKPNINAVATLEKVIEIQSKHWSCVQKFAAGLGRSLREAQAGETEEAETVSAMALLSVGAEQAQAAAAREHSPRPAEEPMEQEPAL

hepatocyte CLint at 1 µM [1] | solubility at 24 h, 100 µM [2] | Ki (Histone deacetylase 1 [3]) | Ki (Histone deacetylase 1 [4]) | Ki (Histone deacetylase 2) | Ki (Histone deacetylase 3) | Ki (Histone deacetylase 8) | Ki (Histone deacetylase 4) | Ki (Histone deacetylase 5) | Ki (Histone deacetylase 7) | Ki [5] | SMILES
< 4.7 µL/min/1e6 cells | 3.3 µM (≈ 1.15 µg/mL) | 0.075 nM | 0.34 nM | 3.1 nM | 0.8 nM | 100 nM | > 10000 nM | 1000 nM | > 10000 nM | > 10000 nM | COc1ccc(Nc2c(NCCCCCC(=O)NO)c(=O)c2=O)cc1
< 5 µL/min/1e6 cells | 24 µM (≈ 9.68 µg/mL) | 3.8 nM | 48 nM | 130 nM | 58 nM | 320 nM | > 10000 nM | 4200 nM | > 10000 nM | > 10000 nM | CC(Nc1c(NCCCCCC(=O)NO)c(=O)c1=O)C12CC3CC(CC(C3)C1)C2 (stereo not drawn)
29 µL/min/1e6 cells | 36 µM (≈ 14.9 µg/mL) | 0.27 nM | 1 nM | 23 nM | 12 nM | 110 nM | 3400 nM | 360 nM | 1700 nM | > 10000 nM | CC(C)(CCCCC(=O)NO)Nc1c(Nc2ccc(C(F)(F)F)cc2)c(=O)c1=O
